Measured values reported in patent US8653127B2, “Bicyclic pyrazolo-heterocycles” (Cara Therapeutics, Inc., priority 2009, dated 2014).
Like-named read-outs stand apart in the source and are kept apart here.

Columns and labels:
[1] = target: human CB2 receptor (hCB2) (Homo sapiens, UniProt P34972); experiment: cAMP assay, agonist/inverse agonist activity at human CB2 receptor; type: cell-based
Experimental: (§1) TR-FRET was measured using a 330-380 nm excitation filter, 615 nm and 665 nm emission filters, dichroic mirror 380 nm and Z=10 mm. cAMP concentrations in each well were back-calculated from a cAMP standard curve run concurrently during each assay. Each plate contained 16 wells of forskolin stimulated cells and 16 wells of forskolin plus 1 μM CP55,940-treated cells. Concentrations of cAMP were expressed as a percent of the difference of these two groups of wells.

[2] = tested on: Complete Freund's Adjuvant (CFA) model of inflammatory pain; experiment: Anti-hyperalgesia in CFA inflammatory pain model (paw withdrawal latency to thermal stimulus); type: in vivo, male Sprague-Dawley rats; conditions: PO dose 3 mg/kg, 1 hr after dosing (24 hr after CFA), rat, read-out: % MPE (1 hr), paw withdrawal latency after CFA injection
Experimental: The anti-hyperalgesic effects of test compounds in the Complete Freund's Adjuvant (CFA) model of inflammatory pain were determined essentially as described in U.S. Pat. No. 7,517,874 using male Sprague-Dawley rats (Hsd: Sprague-Dawley®SD®, Harlan, Indianapolis, Ind.) weighing 200-300 grams.
Test compounds were prepared in a Cremaphor vehicle mixture of 1:1:18 CremophorEL:ethanol:water. Cremophor was obtained from Sigma Chemical (St. Louis, Mo.). Vehicle mixture or vehicle mixture+test compound were each administered p.o.
Assessment of thermal hyperalgesia: Baseline and post-treatment paw withdrawal latencies to a noxious thermal stimulus were measured using a plantar test apparatus (Ugo Basile; obtained from Stoelting, Wood Dale, Ill.). This apparatus generates an infrared heat source that is linearly increasing in intensity. To avoid tissue damage, the power to the heat source was cut off after 20 seconds.
Paw withdrawal latency is defined as the time required for the rat to flick its paw away from the thermal stimulus. Ibuprofen (100 mg/kg, p.o.) was used as the positive control. Paw withdrawal latencies (in seconds) were measured before (naïve paw latency, L1) and 24 hr following (CFA-inflamed paw latency, L2) a single intraplantar injection of 0.1 mL CFA (Sigma-Aldrich, cat F5881, Mycobacterium tuberculosis 1 mg/ml).
Test compounds were administered orally 23 hours following CFA injection; i.e., 1 hour prior to thermal assessment (compound treated CFA-inflamed paw latency, L3). The mean paw withdrawal latency and standard error of the mean (SEM) was determined for the injured paws for each treatment group.
Data were expressed as percent maximum percent effect (% MPE) defined as the percentage of restoration of latency of test compound-treated CFA inflamed paw as compared to the naïve paw latency.

[3] = target: human CB1 receptor (hCB1) (Homo sapiens, UniProt P21554); experiment: cAMP assay, agonist/inverse agonist activity at human CB1 receptor; type: cell-based; conditions: hCB1R, read-out: EC50 at hCB1R (Potency at Human CB1 determined by cAMP Assay)
human CB1 receptor (hCB1), sequence (P21554 whole entry): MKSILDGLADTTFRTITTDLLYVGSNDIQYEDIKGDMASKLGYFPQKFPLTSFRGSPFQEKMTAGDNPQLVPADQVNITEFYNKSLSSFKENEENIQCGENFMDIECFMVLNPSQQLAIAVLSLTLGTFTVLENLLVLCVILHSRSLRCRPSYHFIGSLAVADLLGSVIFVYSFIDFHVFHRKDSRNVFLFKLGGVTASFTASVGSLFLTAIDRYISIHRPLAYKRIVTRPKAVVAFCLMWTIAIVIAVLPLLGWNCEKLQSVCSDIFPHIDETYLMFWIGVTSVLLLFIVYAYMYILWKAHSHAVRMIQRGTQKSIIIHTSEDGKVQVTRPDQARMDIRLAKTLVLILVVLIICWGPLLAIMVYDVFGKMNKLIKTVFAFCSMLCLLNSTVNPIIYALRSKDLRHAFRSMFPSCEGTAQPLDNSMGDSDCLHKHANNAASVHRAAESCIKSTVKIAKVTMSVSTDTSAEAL
Experimental: The ability of each of the compounds to act as agonists or inverse agonists at human CB2 and CB 1 receptors (hCB2, hCB 1, respectively) and at the rat CB2 receptor (rCB2) was determined by measuring changes in intracellular cyclic AMP (cAMP) levels as described in U.S. Pat. No. 7,517,874.
as §1, with “wells. Concentration-response data including EC50 (the concentration of compound producing 50% of the maximal response) and intrinsic activity (the percent maximal activation compared to full activation by CP55,940) were determined using a four-parameter non-linear regression algorithm (CambridgeSoft Bioassay).” for “wells.”

human CB2 receptor (hCB2), sequence (P34972 whole entry): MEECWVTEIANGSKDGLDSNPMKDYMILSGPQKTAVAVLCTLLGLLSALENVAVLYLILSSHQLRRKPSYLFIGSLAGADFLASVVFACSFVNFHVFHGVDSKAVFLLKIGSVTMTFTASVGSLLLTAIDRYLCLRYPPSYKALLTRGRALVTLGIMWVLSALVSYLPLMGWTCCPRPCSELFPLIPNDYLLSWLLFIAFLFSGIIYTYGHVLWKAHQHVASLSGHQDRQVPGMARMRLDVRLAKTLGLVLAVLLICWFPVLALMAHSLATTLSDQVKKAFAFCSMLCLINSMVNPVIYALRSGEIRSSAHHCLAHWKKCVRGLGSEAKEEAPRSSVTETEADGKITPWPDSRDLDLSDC

| Structure (SMILES) | EC50 [1] [nM] | inhibition in vivo at 3 mg/kg [2] [%] | EC50 [3] [nM] | EC50 ([1]; hCB2R, cAMP assay, read-out: EC50 at hCB2R (Potency at Human CB2 determined by cAMP Assay)) [nM] |
| --- | --- | --- | --- | --- |
| CC(C)(C)[C@H](NC(=O)c1nn(-c2ccc(F)c(F)c2)c2c1COCC2)C(=O)NCCO [Compound 115, (S)-1-(3,4-difluorophenyl)-N-(1-(2-hydroxyethylamino)-3,3-dimethyl-1-oxobutan-2-yl)-1,4,6,7-tetrahydropyrano[4,3-c]pyrazole-3-carboxamide] | < 1000 | 35 | < 1000 | – |
| CNC(=O)[C@@H](NC(=O)c1nn(-c2ccc(F)c(F)c2)c2c1COCC2)C(C)(C)C [Compound 114, (S)-1-(3,4-difluorophenyl)-N-(3,3-dimethyl-1-(methylamino)-1-oxobutan-2-yl)-1,4,6,7-tetrahydropyrano[4,3-c]pyrazole-3-carboxamide] | – | 41 | < 1000 | < 1000 |
| CC(C)(C)[C@H](NC(=O)c1nn(-c2ccc(F)c(F)c2)c2c1CCOC2)C(=O)NCCO [Compound 116, (S)-1-(3,4-difluorophenyl)-N-(1-(2-hydroxyethylamino)-3,3-dimethyl-1-oxobutan-2-yl)-1,4,5,7-tetrahydropyrano[3,4-c]pyrazole-3-carboxamide] | < 1000 | 60 | < 1000 | – |
